From ChEMBL document CHEMBL1201862, “PubChem BioAssay data set” (2004)
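96-well plates; 48 h exposure; 5 concentrations. Endpoints by linear interpolation between flanking doses. Not reached: highest tested concentration assigned. The concentration for 50% growth inhibition is given as GI50.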 Activity calls are given as the source filed them. Rule as the data show it: active = GI50 up to about 1.1 µM and inactive = higher.

Assays:
Test in all cases: NCI-60 cell line screen, 48 h
[1] = system: HCT-15
[2] = system: NCI-H460
[3] = system: SW-620
[4] = system: SK-MEL-28
[5] = system: SF-539
[6] = system: OVCAR-8
[7] = system: SNB-75
[8] = system: HT-29
[9] = system: SR
[10] = system: HOP-92
[11] = system: OVCAR-5
[12] = system: A498
[13] = system: K562
[14] = system: EKVX
[15] = system: SK-MEL-2
[16] = system: SK-OV-3
[17] = system: SF-268
[18] = system: UO-31
[19] = system: MDA-MB-231
[20] = system: HCT-116

| Structure (SMILES) | GI50 [1] | GI50 [2] | GI50 [3] | GI50 [4] | GI50 [5] | GI50 [6] | GI50 [7] | GI50 [8] | GI50 [9] | GI50 [10] | GI50 [11] | GI50 [12] | GI50 [13] | GI50 [14] | GI50 [15] | GI50 [16] | GI50 [17] | GI50 [18] | GI50 [19] | GI50 [20] |
| --- | --- | --- | --- | --- | --- | --- | --- | --- | --- | --- | --- | --- | --- | --- | --- | --- | --- | --- | --- | --- |
| CCN(CC)CC(O)CNc1ccc(NCC(O)CCl)c2c1C(=O)c1ccccc1C2=O (stereo not given) | 6.1 µM | 2.78 µM (inactive) | 1.28 µM (inactive) | 11.5 µM (inactive) | 6.27 µM (inactive) | 3.85 µM (inactive) | 11 µM (inactive) | 3.31 µM (inactive) | 1.05 µM (active) | 5.58 µM (inactive) | 15.1 µM (inactive) | 13.5 µM (inactive) | 1.27 µM (inactive) | 14.9 µM (inactive) | 12.2 µM (inactive) | 18.9 µM (inactive) | 2.65 µM (inactive) | 4.59 µM (inactive) | 11.1 µM (inactive) | 1.67 µM (inactive) |
| CCNCCCCNCCCCNCCCCNCCCCNCC | > 100 µM | 32 µM (inactive) | > 100 µM (inactive) | 9.14 µM (inactive) | 70.1 µM (inactive) | > 100 µM (inactive) | 16.7 µM (inactive) | 18.6 µM (inactive) | 56.4 µM (inactive) | 30.8 µM (inactive) | 52.5 µM (inactive) | > 94.2 µM (inactive) | 57 µM (inactive) | 53.5 µM (inactive) | 48.1 µM (inactive) | > 100 µM (inactive) | 48.8 µM (inactive) | 53.6 µM (inactive) | > 100 µM (inactive) | 11.4 µM (inactive) |
| COC1(OC)C2(Cl)C(Cl)=C(Cl)C1(Cl)C1c3ccc(C(C)=O)c4cccc(c34)C12 (stereo not given) | 6.24 µM | 14.5 µM (inactive) | > 53.6 µM (inactive) | 42.8 µM (inactive) | 64 µM (inactive) | 48.6 µM (inactive) | 25.9 µM (inactive) | 5.24 µM (inactive) | 13.7 µM (inactive) | 2.89 µM (inactive) | 28.6 µM (inactive) | 14.3 µM (inactive) | 6.38 µM (inactive) | 41.6 µM (inactive) | 17.3 µM (inactive) | 52.1 µM (inactive) | 61.1 µM (inactive) | 27.5 µM (inactive) | 9.73 µM (inactive) | 6.47 µM (inactive) |
| O=S(=O)(CC(Cl)c1ccccc1)c1nc2ccccc2s1 (stereo not given) | 8.02 µM | 19.7 µM (inactive) | 5.2 µM (inactive) | 15.7 µM (inactive) | 10.2 µM (inactive) | 7.96 µM (inactive) | 14.5 µM (inactive) | 5.42 µM (inactive) | 1.67 µM (inactive) | 2.88 µM (inactive) | 13.7 µM (inactive) | 20 µM (inactive) | 2.81 µM (inactive) | 15.8 µM (inactive) | 17.8 µM (inactive) | 18.7 µM (inactive) | 13.6 µM (inactive) | 15.4 µM (inactive) | 14.1 µM (inactive) | 9.86 µM (inactive) |
| CN(C)CCNC(=O)c1cccc2c(NC(CS)C(=O)O)c3ccccc3nc12 (stereo not given) | 3.72 µM | 15 µM (inactive) | 4.05 µM (inactive) | 10.7 µM (inactive) | 2.41 µM (inactive) | 13.5 µM (inactive) | 14.4 µM (inactive) | 4.94 µM (inactive) | 96.2 µM (inactive) | 19.9 µM (inactive) | 4.52 µM (inactive) | > 10 µM (inactive) | 3.79 µM (inactive) | 11.3 µM (inactive) | 12.1 µM (inactive) | 9.86 µM (inactive) | 7.94 µM (inactive) | 3.6 µM (inactive) | 6.18 µM (inactive) | 4.73 µM (inactive) |
| CCC/C(=N\NC(=S)N1CC2CCC(CC2)C1)c1ccccn1 | 0.0853 µM | 0.22 µM (active) | 0.0566 µM (active) | 0.783 µM (active) | 0.594 µM (active) | 0.0877 µM (active) | 0.185 µM (active) | 0.0432 µM (active) | 0.0495 µM (active) | 0.019 µM (active) | 0.649 µM (active) | 0.708 µM (active) | 0.00581 µM (active) | 0.0434 µM (active) | 0.0813 µM (active) | 0.927 µM (active) | 0.641 µM (active) | 1.1 µM (active) | 1.01 µM (active) | 0.0359 µM (active) |
| O=c1c(-c2nc3ccccc3c3ccccc3c2=O)nc2ccccc2c2ccccc12 | 32.7 µM | 41.3 µM (inactive) | 33.7 µM (inactive) | 55.5 µM (inactive) | 24.5 µM (inactive) | 27.7 µM (inactive) | 32.1 µM (inactive) | 43.5 µM (inactive) | 21.9 µM (inactive) | 37.1 µM (inactive) | 80.4 µM (inactive) | 35.7 µM (inactive) | 32.9 µM (inactive) | 50.1 µM (inactive) | 27.4 µM (inactive) | > 100 µM (inactive) | 41 µM (inactive) | 90.2 µM (inactive) | 34 µM (inactive) | 23.8 µM (inactive) |
| O=C(NC(Nc1ccc(F)cc1)(C(F)(F)F)C(F)(F)F)C(C(F)(F)F)C(F)(F)F | 2.13 µM | 7.98 µM (inactive) | 1.65 µM (inactive) | 17.5 µM (inactive) | 21.4 µM (inactive) | 3.18 µM (inactive) | 36.5 µM (inactive) | 15.5 µM (inactive) | 18.6 µM (inactive) | 51.3 µM (inactive) | > 96.6 µM (inactive) | 62.2 µM (inactive) | 0.401 µM (active) | 24.7 µM (inactive) | 3.63 µM (inactive) | 72.1 µM (inactive) | 49.8 µM (inactive) | 2.39 µM (inactive) | 52 µM (inactive) | 4.2 µM (inactive) |
| CCOC(=O)/C=C(\C(=O)OCC)n1ccc(=O)[nH]c1=O | 6.27 µM | 21.7 µM (inactive) | 2.64 µM (inactive) | 16.9 µM (inactive) | 24.2 µM (inactive) | 24 µM (inactive) | 17.1 µM (inactive) | 15.2 µM (inactive) | 10.4 µM (inactive) | 2.55 µM (inactive) | 19.7 µM (inactive) | 19.1 µM (inactive) | 4.38 µM (inactive) | 16 µM (inactive) | 23.4 µM (inactive) | 22.4 µM (inactive) | 20 µM (inactive) | 16.9 µM (inactive) | 14.3 µM (inactive) | 6.31 µM (inactive) |
| COc1ccc(N2C(=O)C3c4[nH]c5ccc([N+](=O)[O-])cc5c4C4CCC(C(C)(C)C)CC4C3C2=O)cc1 (stereo not given) | 14.4 µM | 2.15 µM (inactive) | 37.1 µM (inactive) | 61.7 µM (inactive) | 15.2 µM (inactive) | 23.6 µM (inactive) | 7.28 µM (inactive) | 3.96 µM (inactive) | 3.72 µM (inactive) | 6.9 µM (inactive) | 18.5 µM (inactive) | 2.26 µM (inactive) | 2.52 µM (inactive) | 15.5 µM (inactive) | 26.1 µM (inactive) | > 100 µM (inactive) | 10.1 µM (inactive) | 16.3 µM (inactive) | 5.18 µM (inactive) | 3.24 µM (inactive) |
| Cc1cccc2c1C(=O)C(C1OC(=O)c3ccccc31)C2 (stereo not given) | > 100 µM | > 100 µM (inactive) | > 100 µM (inactive) | > 100 µM (inactive) | > 100 µM (inactive) | > 100 µM (inactive) | > 100 µM (inactive) | > 100 µM (inactive) | > 100 µM (inactive) | > 100 µM (inactive) | > 100 µM (inactive) | > 100 µM (inactive) | > 100 µM (inactive) | > 100 µM (inactive) | > 100 µM (inactive) | > 100 µM (inactive) | 79.6 µM (inactive) | > 100 µM (inactive) | > 100 µM (inactive) | 90.6 µM (inactive) |
| COc1cc(C2SCC(=O)N2c2ccc(-c3ccc(-n4c(-c5ccccc5)nc5ccccc5c4=O)cc3)cc2)ccc1O (stereo not given) | 25.8 µM | > 100 µM (inactive) | 82 µM (inactive) | > 100 µM (inactive) | 54.7 µM (inactive) | 96.6 µM (inactive) | 15 µM (inactive) | 39.2 µM (inactive) | > 10 µM (inactive) | 30.9 µM (inactive) | 48.3 µM (inactive) | > 100 µM (inactive) | 46.7 µM (inactive) | > 100 µM (inactive) | > 100 µM (inactive) | 16 µM (inactive) | 32.7 µM (inactive) | 24.4 µM (inactive) | > 100 µM (inactive) | 47.8 µM (inactive) |
| C=C(C)[C@@]12C[C@H](OC(=O)[C@H](O)[C@@H](NC(=O)c3ccccc3)c3ccccc3)C(C)=C1[C@@H](OC(C)=O)C(=O)[C@@]1(C)C([C@@H]2OC(=O)c2cc(F)cc(F)c2)C2(OC(C)=O)CO[C@@H]2C[C@@H]1O (stereo not given in full) | 0.292 µM | 0.0348 µM (active) | 0.0505 µM (active) | 0.363 µM (active) | 0.0282 µM (active) | 0.065 µM (active) | 0.0966 µM (active) | 0.0278 µM (active) | 0.169 µM (active) | 2.4 µM (inactive) | 0.165 µM (active) | 0.164 µM (active) | 0.0361 µM (active) | 1.02 µM (active) | 0.144 µM (active) | 0.417 µM (active) | 0.161 µM (active) | 0.973 µM (active) | 0.21 µM (active) | 0.0201 µM (active) |
| CN(C)c1ccccc1CN1CCCN(Cc2ccccc2N(C)C)C1c1ccncc1 | 22.2 µM | 14 µM (inactive) | 16.3 µM (inactive) | 9.06 µM (inactive) | 16.4 µM (inactive) | 15.4 µM (inactive) | 17.6 µM (inactive) | 11.6 µM (inactive) | 4.91 µM (inactive) | 3.47 µM (inactive) | 14.1 µM (inactive) | 12.4 µM (inactive) | 7.41 µM (inactive) | 13.7 µM (inactive) | 17.8 µM (inactive) | 16.5 µM (inactive) | 18.8 µM (inactive) | 5.02 µM (inactive) | 14.7 µM (inactive) | 11.2 µM (inactive) |
